In patent publication US20200231607A1, “TRISUBSTITUTEDSILYLHETEROARYLOXYQUINOLINES AND ANALOGUES” (Bayer Aktiengesellschaft, priority 2017, published 2020):

How the values were obtained:
[1] = HPLC, reversed-phase C 18, 40° C., 0.1% aqueous formic acid and acetonitrile, gradient 10% to 95% acetonitrile
Protocol: temperature: 40° C.; mobile phases: 0.1% aqueous formic acid and acetonitrile; linear gradient from 10% acetonitrile to 95% acetonitrile;
Calibration was carried out using unbranched alkan-2-ones (comprising 3 to 16 carbon atoms) with known log P values (determination of the log P values by the retention times using linear interpolation between two successive alkanones). lambda-max-values were determined using UV-spectra from 200 nm to 400 nm and the peak values of the chromatographic signals.

[2] = tested on: Pyricularia oryzae; assay: microbe, parasite or virus in culture; assay type: cell-based; settings: 120 h, read-out: efficacy (inhibition of fungal growth)
[3] = tested on: Leptnosphaeria nodorum; assay: In vitro cell test on Leptnosphaeria nodorum; assay type: cell-based; settings: 120 h; 20 ppm of active ingredient; 5 days incubation; liquid culture, spectrometric measurement of mycelium growth; read-out: efficacy (inhibition of fungal growth)
Protocol: (§1) Solvent: dimethyl sulfoxide Culture medium: 14.6 g anhydrous D-glucose (VWR), • 7.1 g mycological peptone (Oxoid), • 1.4 g granulated yeast extract (Merck), QSP 1 liter Inoculum: spore suspension The tested compounds were solubilized in dimethyl sulfoxide and the solution used to prepare the required range of concentrations. […] A spore suspension of Leptnosphaeria nodorum was prepared and diluted to the desired spore density. The compounds were evaluated for their ability to inhibit spore germination and mycelium growth in liquid culture assay. The compounds were added in the desired concentration to the culture medium with spores. After 5 days incubation, fungi-toxicity of compounds was determined by spectrometric measurement of mycelium growth. Inhibition of fungal growth was determined by comparing the absorbance values in wells containing the tested compound with the absorbance in control wells without the tested compound.

[4] = tested on: Colletotrichum lindemuthianum; assay: In vitro cell test on Colletotrichum lindemuthianum; assay type: cell-based; settings: 144 h, 20 ppm of active ingredient, 6 days incubation, liquid culture, spectrometric measurement of mycelium growth, read-out: efficacy (inhibition of fungal growth)
Protocol: as §1, with “Colletotrichum lindemuthianum” for “Leptnosphaeria nodorum”, “6” for “5”

Row | Compound | chromatographic logP [1] | other results
1 | C[Si](C)(C)c1cnccc1Oc1cnc2ccccc2n1 [I.01] |  | logP [1]: 2.64
2 | C[Si](C)(C)c1cnccc1Oc1cnc2ccccc2c1 [I.02] |  | logP [1]: 2.15
3 | C[Si](C)(C)c1c(Oc2cnc3ccccc3c2)ccnc1F [I.03, 3-{[2-fluoro-3-(trimethylsilyl)pyridin-4-yl]oxy}quinoline] | 4.08 | inhibition at 20 ppm [2]: 90 to 100%; inhibition at 20 ppm [3]: 90 to 100%; inhibition at 20 ppm [4]: 90 to 100%
4 | C[Si](C)(Cc1ccccc1)c1c(Oc2cnc3ccccc3c2)ccnc1F [I.06, 3-({3-[benzyl(dimethyl)silyl]-2-fluoropyridin-4-yl}oxy)quinoline] | 4.78 | inhibition at 20 ppm [2]: 90 to 100%; inhibition at 20 ppm [3]: 80 to 89%; inhibition at 20 ppm [4]: 80 to 89%
5 | C[Si](C)(C)c1cnccc1Oc1cnc2c(F)cccc2n1 [I.15] |  | logP [1]: 2.75
6 | Cc1nc2c(F)c(F)ccc2nc1Oc1ccncc1[Si](C)(C)C [I.18] |  | logP [1]: 2.80
7 | Cc1nc2c(F)c(F)ccc2nc1Oc1cnccc1[Si](C)(C)C [I.19] |  | logP [1]: 3.94
8 | Cc1nc2ccccc2nc1Oc1ccncc1[Si](C)(C)C [I.23] |  | logP [1]: 2.49
9 | Cc1nc2ccccc2n1Cc1sccc1[Si](C)(C)C [I.24, 2-methyl-1-{[3-(trimethylsilyl)-2-thienyl]methyl}-1H-benzimidazole] | 2.13 | inhibition at 20 ppm [2]: 90 to 100%; inhibition at 20 ppm [3]: 90 to 100%; inhibition at 20 ppm [4]: 90 to 100%
10 | C[Si](C)(C)c1sccc1Cn1cnc2ccccc21 [I.25] |  | logP [1]: 2.08
11 | C[Si](C)(c1ccccc1)c1sccc1Cn1cnc2ccccc21 [I.26] |  | logP [1]: 2.49
12 | Cc1nc2c(F)c(F)ccc2cc1Cc1sccc1[Si](C)(C)C [I.28, 7,8-difluoro-2-methyl-3-{[3-(trimethylsilyl)-2-thienyl]methyl}-quinoline] | 5.25 | 
13 | Cc1nc2c(F)c(F)ccc2nc1Oc1cccnc1Br [IIa.01, 2-[(2-bromopyridin-3-yl)oxy]-5,6-difluoro-3-methylquinoxaline] | 3.26 | 
14 | Cc1nc2c(F)c(F)ccc2nc1Oc1cc(Cl)cnc1Br [IIa.02, 2-[(2-bromo-5-chloropyridin-3-yl)oxy]-5,6-difluoro-3-methylquinoxaline] | 4.3 | 
15 | Fc1ccc2nc(Oc3cccnc3Br)cnc2c1F [IIa.03, 2-[(2-bromopyridin-3-yl)oxy]-5,6-difluoroquinoxaline] | 2.96 | 
16 | Fc1cccc2cc(Nc3cccnc3Cl)cnc12 [IIa.04, N-(2-chloropyridin-3-yl)-8-fluoroquinolin-3-amine] | 2.14 | 
17 | Fc1nccc(Oc2cnc3ccccc3c2)c1Br [IIb.01, 3-[(3-bromo-2-fluoropyridin-4-yl)oxy]quinoline] | 2.96 | logP [1]: 2.92
18 | Cc1nc2c(F)c(F)ccc2nc1Oc1cc(Cl)ncc1Br [IIb.02, 2-[(5-bromo-2-chloropyridin-4-yl)oxy]-5,6-difluoro-3-methylquinoxaline] | 4.2 | 
19 | Fc1ccc2nc(Oc3ccncc3Br)cnc2c1F [IIb.03, 2-[(3-bromopyridin-4-yl)oxy]-5,6-difluoroquinoxaline] | 1.81 | 

Row | Compound | chromatographic logP [1] | other results
20 | Clc1nccc(Nc2cnc3ccccc3c2)c1Br [IIb.04, N-(3-bromo-2-chloropyridin-4-yl)quinolin-3-amine] | 2.35 | 
21 | COc1nccc(Oc2cc3ccc(F)c(F)c3nc2C)c1Br [IIb.05, 3-[(3-bromo-2-methoxypyridin-4-yl)oxy]-7,8-difluoro-2-methylquinoline] | 3.85 | 
22 | Fc1nccc(Oc2cnc3c(F)cccc3c2)c1Br [IIb.06, 3-[(3-bromo-2-fluoropyridin-4-yl)oxy]-8-fluoroquinoline] | 2.98 | 
23 | Clc1nccc(Oc2cnc3ccccc3c2)c1Br [IIb.07, 3-[(3-bromo-2-chloropyridin-4-yl)oxy]quinoline] | 2.35 | 
24 | Fc1nccc(Nc2cnc3ccccc3c2)c1Br [IIb.08, N-(3-bromo-2-fluoropyridin-4-yl)quinolin-3-amine] | 2.25 | 
25 | Cc1nc2c(F)c(F)ccc2cc1Oc1ccnc(C(F)(F)F)c1Br [IIb.09, 3-{[3-bromo-2-(trifluoromethyl)pyridin-4-yl]oxy}-7,8-difluoro-2-methylquinoline] | 4.01 | 
26 | Cc1nc2c(F)c(F)ccc2cc1Nc1ccnc(C(F)(F)F)c1Br [IIb.10, N-[3-bromo-2-(trifluoromethyl)pyridin-4-yl]-7,8-difluoro-2-methylquinolin-3-amine] | 3.37 | 
27 | Cc1nc2c(F)c(F)ccc2nc1Oc1cncc(Cl)c1Br [IIc.01, 2-[(4-bromo-5-chloropyridin-3-yl)oxy]-5,6-difluoro-3-methylquinoxaline] | 4.06 | 
28 | Cc1nc2ccccc2cc1Oc1cnccc1Br [IIc.02, 3-[(4-bromopyridin-3-yl)oxy]-2-methylquinoline] | 2.44 | 
29 | Cc1nc2c(F)c(F)ccc2nc1Oc1cnccc1Br [IIc.03, 2-[(4-bromopyridin-3-yl)oxy]-5,6-difluoro-3-methylquinoxaline] | 3.19 | 
30 | Cc1nc2c(F)c(F)ccc2nc1Oc1ncc(Cl)cc1Br [IId.01, 2-[(3-bromo-5-chloropyridin-2-yl)oxy]-5,6-difluoro-3-methylquinoxaline] | 4.72 | 
31 | Cc1nc2c(F)c(F)ccc2cc1Nc1ncc(Cl)cc1Br [IId.02, N-(3-bromo-5-chloropyridin-2-yl)-7,8-difluoro-2-methylquinolin-3-amine] | 4.36 | 
32 | Clc1ncnc(Oc2cnc3ccccc3c2)c1Br [IIe.01, 3-[(5-bromo-6-chloropyrimidin-4-yl)oxy]quinoline] | 3.09 | 
33 | Cc1nc2c(F)c(F)ccc2cc1Oc1sccc1Br [IIf.01, 3-[(3-bromo-2-thienyl)oxy]-7,8-difluoro-2-methylquinoline] | 4.23 | 
34 | Clc1cc(Oc2cnc3ccccc3c2)ccn1 [VIIa.01, 3-[(2-chloropyridin-4-yl)oxy]quinoline] | 2.47 | 
35 | Cc1nc2ccccc2cc1Oc1ccnc(F)c1 [VIIa.02, 3-[(2-fluoropyridin-4-yl)oxy]-2-methylquinoline] | 2.17 | 
36 | Fc1cc(Oc2cnc3ccccc3c2)ccn1 [VIIa.03, 3-[(2-fluoropyridin-4-yl)oxy]quinoline] | 2.25 | 
37 | Fc1cc(Oc2cnc3ccccc3c2)ncn1 [VIIb.01, 3-[(6-fluoropyrimidin-4-yl)oxy]quinoline] | 2.08 | 
